Data reported in patent US5635518A, “N-substituted azaheterocyclic carboxylic acids and esters thereof” (Novo Nordisk A/S, priority 1993, dated 1997).
Where a name gives a salt, the structure may show the parent alone.

Assays:
GABA uptake [1] = details: oral; Yunger, L. M. et al., J. Pharm. Exp. Ther. 1984, 228, 109; cited from earlier work
[^3 H]-GABA uptake = in vitro inhibition of [3H]-GABA uptake, rat cortical tissue homogenate (method of Fjalland); format: biochemical, Male wistar rat; details: 40 mM tris HCl pH 7.5, 60 minutes at 30° C.
Procedure: Values for in vitro inhibition of [^3 H]-GABA uptake for the invention compounds were assessed essentially by the method of Fjalland (Acta Pharmacol. Toxicol. 1978, 42, 73-76). Male wistar rat cortical tissue was gently homogenized by hand using a glass/PTFE homogenizer in 10 volumes of 0.32M sucrose. Incubation was performed in a 40 mM tris HCl buffer (pH 7.5 at 30° C.) containing […], 4 mM MgSO4, […] and 10 mM glucose, for 60 minutes at 30° C. Values for inhibition of GABA uptake for some representative compounds are recorded in Table I.

GABA uptake [2] = details: from the synaptic cleft into presynaptic nerve terminals and glial cells; cited from earlier work

Compound	orally active inhibitor of GABA uptake (GABA uptake [1])	IC50 ([^3 H]-GABA uptake) [µM]	also measured
O=C(O)C1=CCCN(CCC=C(c2ccccc2)c2ccccc2)C1 [SK&F 100330A, N-(4,4-diphenyl-3-buten-1-yl)guvacine]	orally active inhibitors of GABA uptake		
O=C(O)[C@@H]1CCCN(CCOc2ccccc2-c2ccccc2)C1 [Example 5, (R)-1-(2-(2-Phenylphenoxy)ethyl)-3-piperidinecarboxylic acid hydrochloride]		5.6	
O=C(O)CC1CCN(CCC=C(c2ccccc2)c2ccccc2)C1 (stereo not drawn) [SK&F 100561, N-(4,4-diphenyl-3-buten-1-yl)-homo-β-proline]	orally active inhibitors of GABA uptake		
O=C(O)C1CCCNC1 (stereo not shown) [3-piperidine-carboxylic acid]			inhibitor of GABA uptake (GABA uptake [2]): well-known and potent inhibitor of GABA uptake
O=C(O)C1CCCN(CCC=C(c2ccccc2)c2ccccc2)C1 (stereo not shown) [SK&F 89976A, N-(4,4-diphenyl-3-buten-1-yl)nipecotic acid]	orally active inhibitors of GABA uptake		
O=C(O)C1CCCN(CCC=C(c2ccccc2)c2cccs2)C1 (stereo not shown) [SK&F 100604J, N-(4-phenyl-4-(2-thienyl)-3-buten-1-yl)nipecotic acid]	orally active inhibitors of GABA uptake		
O=C(O)[C@@H]1CCCN(CCOc2cccc(-c3ccccc3)c2)C1 [Example 4, (R)-1-(2-(3-Phenylphenoxy)ethyl)-3-piperidinecarboxylic acid hydrochloride]		5.6	
O=C(O)[C@@H]1CCCN(CCOc2ccccc2)C1 [Example 1, (R)-1-(2-Phenoxyethyl)-3-piperidinecarboxylic acid hydrochloride]		64	
O=C(O)[C@@H]1CCCN(CCCCOc2ccccc2)C1 [Example 2, (R)-1-(4-Phenoxy-1-butyl)-3-piperidinecarboxylic acid hydrochloride]		24	
O=C(O)[C@@H]1CCCN(CCOc2ccccc2Cc2ccccc2)C1 [Example 3, (R)-1-(2-(2-Benzylphenoxy)ethyl)-3-piperidinecarboxylic acid hydrochloride]		6.7	
